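Method: 48-hour compound exposure of cells in 96-well plates, five concentrations, linear interpolation of endpoints. The concentration for 50% growth inhibition is given as GI50.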 Calls of active or inactive are those of the source. Rule as the data show it: active = GI50 up to about 1.1 µM and inactive = higher.
Columns and labels:
Assay in all cases: NCI-60 cell line screen, 48 h
M19-MEL = tested on: M19-MEL
DMS-273 = tested on: DMS-273
DLD-1 = tested on: DLD-1
XF498 = tested on: XF498
KM-20L2 = tested on: KM-20L2
SNB-78 = tested on: SNB-78
DMS-114 = tested on: DMS-114
LXFL 529 = tested on: LXFL 529
RXF 631 = tested on: RXF 631

| SMILES | GI50 (M19-MEL) | GI50 (DMS-273) | GI50 (DLD-1) | GI50 (XF498) | GI50 (KM-20L2) | GI50 (SNB-78) | GI50 (DMS-114) | GI50 (LXFL 529) | GI50 (RXF 631) |
| --- | --- | --- | --- | --- | --- | --- | --- | --- | --- |
| O=C1/C(=C/c2ccc(O)c(O)c2)CCC/C1=C\c1ccc(O)c(O)c1 | 3.43 µM (inactive) | 2.06 µM (inactive) | 2.68 µM (inactive) | 3.13 µM (inactive) | 11.6 µM (inactive) | 2.11 µM (inactive) |  |  |  |
| C/N=c1\ss/c(=N\C(=S)N(C)C)n1C | > 100 µM (inactive) | > 100 µM (inactive) | > 100 µM (inactive) | > 100 µM (inactive) | > 100 µM (inactive) | > 100 µM (inactive) | > 100 µM (inactive) | > 100 µM (inactive) |  |
| CCOC(=O)NC(=O)c1cn(C2OC(COC(=O)CCCCCCCCC(=O)OCC3OC(n4cc(C(=O)NC(=O)OCC)c(=O)[nH]c4=O)C4OC(C)(C)OC34)C3OC(C)(C)OC32)c(=O)[nH]c1=O (configuration not stated) | 26.9 µM (inactive) | 60.1 µM (inactive) | > 100 µM (inactive) | 67.1 µM (inactive) | 67.6 µM (inactive) | > 100 µM (inactive) | 93.1 µM (inactive) | 88.5 µM (inactive) | > 100 µM (inactive) |
| O=C(O)C1C2CCC(O2)C1C(=O)N1CCCCC1 (configuration not stated) | 9.1 µM (inactive) | 10.6 µM (inactive) | 15.6 µM (inactive) |  | 2.65 µM (inactive) | 16.7 µM (inactive) | 2 µM (inactive) | 5.02 µM (inactive) | 17.4 µM (inactive) |
| COC1(OC)CC2C(=O)N(Cc3ccccc3)C1CC2S(=O)(=O)c1ccccc1 (configuration not stated) | > 100 µM (inactive) | > 100 µM (inactive) | > 100 µM (inactive) | 33.4 µM (inactive) |  |  | > 100 µM (inactive) |  |  |
| CCC12C=CCN3CCC4(c5cc(C6(C(=O)OC)CCCCCc7c6[nH]c6ccccc76)c(OC)cc5N(C)C4C(O)(C(=O)OC)C1OC(C)=O)C32 (configuration not stated) | 2.51 µM (inactive) |  |  | 2.33 µM (inactive) | 2.03 µM (inactive) | 2.78 µM (inactive) | 2.38 µM (inactive) | 1.84 µM (inactive) |  |
| OCc1ccc(C2CC(c3ccco3)=NN2c2ccccc2)o1 (configuration not stated) | > 100 µM (inactive) | > 100 µM (inactive) |  | > 100 µM (inactive) | > 100 µM (inactive) | > 100 µM (inactive) | > 100 µM (inactive) | > 100 µM (inactive) |  |
| COc1cccc2c1C(=O)c1c(O)c3c(c(O)c1C2=O)C[C@@](O)(C(C)=O)C[C@@H]3OC1CC(N(Cc2ccccc2)Cc2ccccc2)C(O)C(C)O1 (some centres not stated) | 23.2 µM (inactive) | 3.78 µM (inactive) | 10.1 µM (inactive) |  | 24.9 µM (inactive) | 2.56 µM (inactive) | 39.8 µM (inactive) | 0.69 µM (active) |  |
| Cc1csc(=S)n1OC(=O)NC1CCCCC1 | 16.5 µM (inactive) | > 49.4 µM (inactive) | 55.5 µM (inactive) | > 100 µM (inactive) |  | 97.7 µM (inactive) | 12.3 µM (inactive) | 13.8 µM (inactive) |  |
| CCOC(=O)NC(=O)c1cn(CCOC(=O)CCCCCCCCC(=O)OCCn2cc(C(=O)NC(=O)OCC)c(=O)[nH]c2=O)c(=O)[nH]c1=O | > 100 µM (inactive) | > 100 µM (inactive) | > 100 µM (inactive) | > 100 µM (inactive) | > 100 µM (inactive) | > 100 µM (inactive) | > 100 µM (inactive) | > 100 µM (inactive) | > 100 µM (inactive) |
| N#CC(C#N)=C(N)/C(C#N)=C/c1ccc2[nH]ccc2c1 | > 100 µM (inactive) | > 100 µM (inactive) |  |  | > 100 µM (inactive) | > 100 µM (inactive) | > 100 µM (inactive) |  |  |
| CCCCCCCCCC(=O)CC(=O)c1ccc(O)cc1O |  | 28.2 µM (inactive) | 28.5 µM (inactive) |  | 38 µM (inactive) |  |  | 30.5 µM (inactive) |  |
| Cc1cccc(Cl)c1NC(=O)c1cccc([N+](=O)[O-])c1O |  | 37.2 µM (inactive) | 31.7 µM (inactive) | 32.2 µM (inactive) | 41.4 µM (inactive) | 71 µM (inactive) | 25.8 µM (inactive) | 50.6 µM (inactive) | 36.7 µM (inactive) |
| Cc1cccc(NC(=O)C(=O)C(C(=O)c2ccc3ccccc3c2)C2OC(=O)c3ccccc32)c1C (configuration not stated) | 9.91 µM (inactive) | 13.8 µM (inactive) | 14.8 µM (inactive) | 1.56 µM (inactive) | 33 µM (inactive) | 16.1 µM (inactive) | 7.67 µM (inactive) | 9.55 µM (inactive) | 7.19 µM (inactive) |
| COc1cc(C(C#N)NNC(=O)c2ccccc2O)ccc1O (configuration not stated) | 3.58 µM (inactive) |  | 4.22 µM (inactive) |  | 29.4 µM (inactive) | 3.2 µM (inactive) |  | 1.6 µM (inactive) |  |
| CO[C@@]12CC(=O)/C(=C(O)\C=C\c3ccccc3)C(=O)[C@]1(OC)Cc1ccccc1O2 | 37.5 µM (inactive) |  | 32.2 µM (inactive) | 43 µM (inactive) | 22.4 µM (inactive) | 30.5 µM (inactive) | 44.8 µM (inactive) | 33.7 µM (inactive) | 30.3 µM (inactive) |
| CCC12C=CCN3CCC4(C(=C(C(=O)OC)C1)Nc1ccccc14)[C@H]32 (some centres not stated) | 31.3 µM (inactive) | 17.9 µM (inactive) | 40.4 µM (inactive) |  | 19.8 µM (inactive) |  | 19.2 µM (inactive) | 31.6 µM (inactive) |  |
| Cc1cc(C)n(-c2ccnc3cc(Cl)ccc23)n1 | > 100 µM (inactive) | > 100 µM (inactive) | > 100 µM (inactive) | > 100 µM (inactive) | > 100 µM (inactive) | > 100 µM (inactive) | > 100 µM (inactive) | > 100 µM (inactive) |  |
| O=C(NCCNCCO)N/N=C/c1ccccc1 |  | > 100 µM (inactive) | > 100 µM (inactive) | > 100 µM (inactive) |  | > 100 µM (inactive) | > 100 µM (inactive) | > 100 µM (inactive) |  |
| CCOc1ccc(NC2=NC(=O)C(CC(=O)Nc3ccccc3[N+](=O)[O-])S2)cc1 (configuration not stated) | > 100 µM (inactive) | > 100 µM (inactive) | > 100 µM (inactive) | > 100 µM (inactive) | > 100 µM (inactive) | > 100 µM (inactive) | > 100 µM (inactive) | > 100 µM (inactive) |  |
| COC(=O)C1=C(C)N(NC(=O)c2cccc(Cl)c2)C(C)(O)C12CCOC2=O (configuration not stated) | > 100 µM (inactive) | > 100 µM (inactive) |  | > 100 µM (inactive) | > 100 µM (inactive) | 42.1 µM (inactive) | > 100 µM (inactive) | > 100 µM (inactive) | > 100 µM (inactive) |
| COC1=CCC=C(C[C@@H]2NCCc3cc(OC)c(OC)cc32)C1 | > 100 µM (inactive) | > 100 µM (inactive) | > 100 µM (inactive) | > 100 µM (inactive) | > 100 µM (inactive) | > 100 µM (inactive) |  | > 100 µM (inactive) |  |
| O=[As](O)(O)c1cc(/N=N/c2ccc(-c3ccc(/N=N/c4cc([As](=O)(O)O)c(O)cc4O)cc3)cc2)c(O)cc1O | > 100 µM (inactive) | > 100 µM (inactive) | > 43 µM (inactive) |  | > 100 µM (inactive) | > 100 µM (inactive) | > 80.4 µM (inactive) | > 100 µM (inactive) | > 100 µM (inactive) |

Source: ChEMBL document CHEMBL1201862, “PubChem BioAssay data set” (2004)
